In patent US8778966B2, “Quinolinone derivatives as PARP and tank inhibitors” (Janssen Pharmaceutica, NV, priority 2007, dated 2014):
Like-named read-outs stand apart in the source and are kept apart here.

Experiments:
Human PARP-1 enzyme = biological target: T1, Human PARP-1 enzyme (Homo sapiens, UniProt P09874); test: In vitro Scintillation Proximity Assay (SPA) for PARP-1 inhibitory activity; type: biochemical; conditions: read-out: in vitro SPA assay PARP-1 pIC50 (converted)
T1 construct: purchased Trevigen
T1 sequence (P09874 whole entry): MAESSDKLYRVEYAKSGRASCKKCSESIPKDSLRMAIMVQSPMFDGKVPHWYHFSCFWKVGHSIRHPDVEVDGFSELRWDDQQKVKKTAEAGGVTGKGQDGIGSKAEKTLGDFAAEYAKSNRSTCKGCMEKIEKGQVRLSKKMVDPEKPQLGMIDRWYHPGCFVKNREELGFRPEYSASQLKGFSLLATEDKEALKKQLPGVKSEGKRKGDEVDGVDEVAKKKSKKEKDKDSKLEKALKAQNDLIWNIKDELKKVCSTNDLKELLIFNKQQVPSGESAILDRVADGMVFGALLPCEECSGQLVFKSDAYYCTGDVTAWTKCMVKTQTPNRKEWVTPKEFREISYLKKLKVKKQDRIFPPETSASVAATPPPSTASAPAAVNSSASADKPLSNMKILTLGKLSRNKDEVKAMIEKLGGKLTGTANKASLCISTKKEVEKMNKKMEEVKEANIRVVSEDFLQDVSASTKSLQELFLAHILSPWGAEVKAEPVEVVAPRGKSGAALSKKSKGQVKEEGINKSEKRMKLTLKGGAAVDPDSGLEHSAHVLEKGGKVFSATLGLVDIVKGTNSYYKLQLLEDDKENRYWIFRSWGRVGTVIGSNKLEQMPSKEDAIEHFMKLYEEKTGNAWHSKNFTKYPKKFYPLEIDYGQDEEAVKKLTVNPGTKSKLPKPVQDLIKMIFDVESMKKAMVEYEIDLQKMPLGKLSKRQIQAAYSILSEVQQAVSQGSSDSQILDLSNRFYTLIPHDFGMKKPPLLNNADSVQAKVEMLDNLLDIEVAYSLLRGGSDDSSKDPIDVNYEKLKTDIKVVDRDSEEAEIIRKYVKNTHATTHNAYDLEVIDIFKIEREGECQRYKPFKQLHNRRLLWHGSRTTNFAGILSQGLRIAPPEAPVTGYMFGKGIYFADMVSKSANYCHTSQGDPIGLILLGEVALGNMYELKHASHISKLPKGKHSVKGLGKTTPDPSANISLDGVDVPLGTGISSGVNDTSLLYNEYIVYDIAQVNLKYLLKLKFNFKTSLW
Method in brief: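 SPA assay: nicked-DNA-activated PARP-1 (0.1–0.2 μg/ml) ADP-ribosylates biotinylated histones (2 μg/ml) using [3H]-NAD+, 20 min at RT in Tris pH 8/DTT/MgCl2, stopped with 2 mM NAD+. Blank-subtracted cpm expressed as % control; IC50 by linear interpolation, reported as pIC50 (10−5 to 3×10−9 M tested).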

HCT116 cells = test: Antiproliferative activity, Alamar Blue assay, HCT116 cells; type: cell-based, human; design: key to HCT116 antiproliferative activity pIC50: pIC50 = -log IC50 (IC50: conc. reducing growth to 50% of control); conditions: for IC50: Homo sapiens, HCT-116, HCT116 cells, read-out: HCT116 antiproliferative activity pIC50 (converted)
Method in brief: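 Readout is resazurin fluorescence (ex 540, em 590 nm) after a 4 h dye incubation at 37 °C, following 4-day compound treatment of HCT116 cells plated 24 h earlier. Results expressed as % viable cells versus untreated; pIC50 derived from probit-fitted IC50.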

PC-3 cells = test: Antiproliferative activity, Alamar Blue assay, PC-3 cells; type: cell-based, human; conditions: for IC50: Homo sapiens, PC-3, PC3 cells, read-out: PC3 antiproliferative activity pIC50 (converted); for PC3 antiproliferative activity pIC50: PC3 cells
Method in brief: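 Resazurin-based fluorescence (540 nm ex/590 nm em) measured after 4-day compound treatment plus 24 hrs dye incubation at 37° C. Cells plated at 4.5×10^3 cells/ml, adhered 24 hr first. pIC50 from probit-derived IC50 on % viable cells versus untreated, triplicate wells.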

Row | Structure (SMILES) | IC50 (Human PARP-1 enzyme) | IC50 (HCT116 cells) | IC50 (PC-3 cells) | HCT116 antiproliferative activity pIC50 (HCT116 cells; HCT116 cells) | PC3 antiproliferative activity pIC50 (PC-3 cells) | IC50 (HCT116 cells; Alamar Blue) | IC50 (PC-3 cells; Alamar Blue)
1 | CCc1cc2ccc(C(C)(C#N)Cc3cccc(N4CCN(C)CC4)c3)cc2[nH]c1=O (stereo not shown) [Compound 66] | 1.26 µM | 5.01 µM | 5.01 µM | – | – | – | –
2 | CCOP(=O)(OCC)c1cccc(CC(C)(C#N)c2ccc3cc(CC)c(=O)[nH]c3c2)c1 (stereo not shown) [Compound 50] | 2.51 µM | 1.26 µM | 0.794 µM | – | – | – | –
3 | CCc1cc2ccc(C(C)(C#N)Cc3cc(Cl)ccc3OC)cc2[nH]c1=O (stereo not shown) [Compound 80] | 1 µM | 0.501 µM | 0.398 µM | – | – | – | –
4 | CCc1cc2ccc(C(C)(C#N)Cc3ccc(F)c(C)c3)cc2[nH]c1=O (stereo not shown) [Compound 79] | 0.794 µM | 0.794 µM | 0.794 µM | – | – | – | –
5 | CCc1cc2ccc(C(C)(C#N)Cc3ccncc3)cc2[nH]c1=O (stereo not shown) [Compound 98] | 0.158 µM | > 10 µM | > 10 µM | – | – | – | –
6 | CCc1cc2ccc(C(C)(C#N)Cc3cc(Cl)cc4c3OCOC4)cc2[nH]c1=O (stereo not shown) [Compound 92] | 0.251 µM | – | – | 5.8 | 5.4 | – | –
7 | Cc1cc2ccc(C(C)(C#N)Cc3nc4ccccc4s3)cc2[nH]c1=O (stereo not shown) [Compound 75] | 1.26 µM | 0.126 µM | 0.2 µM | – | – | – | –
8 | CCc1cc2ccc(C(C)(C#N)Cc3ccc(OC)c(C#N)c3)cc2[nH]c1=O (stereo not shown) [Compound 77] | 0.398 µM | 1 µM | 1.58 µM | – | – | – | –
9 | Cc1cc2ccc(C(C)(C#N)Cc3cc4ccccc4[nH]3)cc2[nH]c1=O (stereo not shown) [Compound 234] | 0.251 µM | – | – | – | – | 5.01 µM | 10 µM
10 | CCc1cc2ccc(C(C)(C#N)CCOc3cc(Cl)c(Cl)cc3Cl)cc2[nH]c1=O (stereo not shown) [Compound 277] | 0.398 µM | – | – | – | – | 0.501 µM | 0.501 µM
11 | CCc1cc2ccc(C(C)(C#N)Cc3cccc(CNC)c3)cc2[nH]c1=O (stereo not shown) [Compound 59] | 0.631 µM | 3.16 µM | 10 µM | – | – | – | –
12 | CCc1cc2ccc(C(C)(C#N)Cc3ccccc3)cc2[nH]c1=O (stereo not shown) [Compound 44] | 0.316 µM | – | – | – | – | – | –
13 | CCc1cc2ccc(C(C)(C#N)Cc3cc(Cl)cc4c3OCOC4)cc2[nH]c1=O (stereo not shown) [Compound 90] | 0.316 µM | 1 µM | – | – | 5.8 | – | –
14 | CCc1cc2ccc(C(C)(C#N)Cc3ccccc3C#N)cc2[nH]c1=O (stereo not shown) [Compound 101] | 0.0501 µM | 2.51 µM | 3.16 µM | – | – | – | –
15 | Cc1cc2ccc(C(C)(C#N)Cc3ccccc3)cc2[nH]c1=O (stereo not shown) [Compound 76] | 1.58 µM | 0.251 µM | 0.631 µM | – | – | – | –
16 | CCc1cc2ccc(C(C)(C#N)Cc3cccc(C(=O)NCCOC)c3)cc2[nH]c1=O (stereo not shown) [Compound 62] | 0.501 µM | 7.94 µM | 7.94 µM | – | – | – | –
17 | CCc1cc2ccc(C(C)(C#N)Cc3c(F)ccc(C)c3F)cc2[nH]c1=O (stereo not shown) [Compound 41] | 1 µM | 0.631 µM | 0.631 µM | – | – | – | –
18 | CCc1cc2ccc(C(C)(C#N)Cc3c(C)cccc3C)cc2[nH]c1=O (stereo not shown) [Compound 84] | 1.26 µM | 2 µM | 3.98 µM | – | – | – | –
19 | CCc1cc2ccc(C(C)(C#N)Cc3cccc(C#C[Si](C)(C)C)c3)cc2[nH]c1=O (stereo not shown) [Compound 1] | 0.398 µM | – | – | – | – | 0.2 µM | 0.631 µM
20 | CCc1cc2ccc(C(C)(C#N)Cc3cc(OC)cc(OC)c3)cc2[nH]c1=O (stereo not shown) [Compound 332] | 0.0794 µM | – | – | – | – | 0.1 µM | 0.251 µM
21 | CCc1cc2ccc([C@@](C)(C#N)Cc3ccccc3)cc2[nH]c1=O (single isomer, unassigned) [Compound 46] | 0.316 µM | 0.158 µM | 0.398 µM | – | – | – | –
22 | CCc1cc2ccc(C(C)(C#N)Cc3ccccc3OC(F)(F)F)cc2[nH]c1=O (stereo not shown) [Compound 102] | 1.58 µM | 2 µM | 1 µM | – | – | – | –

Row | Structure (SMILES) | IC50 (Human PARP-1 enzyme) | IC50 (HCT116 cells) | IC50 (PC-3 cells) | HCT116 antiproliferative activity pIC50 (HCT116 cells; HCT116 cells) | PC3 antiproliferative activity pIC50 (PC-3 cells) | IC50 (HCT116 cells; Alamar Blue) | IC50 (PC-3 cells; Alamar Blue)
23 | CCc1cc2ccc(C(C)(C#N)Cc3cccc(COC)c3)cc2[nH]c1=O (stereo not shown) [Compound 8] | 0.501 µM | 0.631 µM | 0.631 µM | – | – | – | –
24 | CCc1cc2ccc(C(C#N)(Cc3ccccc3)CC3CC3)cc2[nH]c1=O (stereo not shown) [Compound 28] | – | > 10 µM | > 10 µM | – | – | – | –
25 | CCc1cc2ccc(C(C)(C#N)Cc3cccc(N4CCNCC4)c3)cc2[nH]c1=O (stereo not shown) [Compound 64] | 0.794 µM | > 10 µM | > 10 µM | – | – | – | –
26 | CCc1cc2ccc(C(C)(C#N)Cc3cccc(N4CCCCC4)c3)cc2[nH]c1=O (stereo not shown) [Compound 65] | 1.26 µM | – | – | – | – | – | –
27 | CCc1cc2ccc(C(C)(C#N)Cc3cc4c(cc3Cl)OCO4)cc2[nH]c1=O (stereo not shown) [Compound 91] | 1.26 µM | 0.501 µM | 0.398 µM | – | – | – | –
28 | CCc1cc2ccc(C(C)(C#N)Cc3ccc(F)c(C#N)c3)cc2[nH]c1=O (stereo not shown) [Compound 267] | 0.0794 µM | – | – | – | – | 0.2 µM | 0.501 µM
29 | CCc1cc2ccc(C(C)(C#N)Cc3cc(Cl)ccc3Cl)cc2[nH]c1=O (stereo not shown) [Compound 99] | 1 µM | 0.0794 µM | 0.398 µM | – | – | – | –
30 | CCc1cc2ccc([C@](C)(C#N)Cc3nc(OC)cc(OC)n3)cc2[nH]c1=O (single isomer, unassigned) [Compound 52] | 0.2 µM | – | – | – | – | 5.01 µM | 7.94 µM
31 | CCc1cc2ccc(C(C)(C#N)Cc3cccc(CN4CCN(C)CC4)c3)cc2[nH]c1=O (stereo not shown) [Compound 57] | 3.98 µM | > 10 µM | > 10 µM | – | – | – | –
32 | CCc1cc2ccc(C(C)(C#N)CCOc3ccccc3C#N)cc2[nH]c1=O (stereo not shown) [Compound 276] | 0.0794 µM | – | – | – | – | 1.58 µM | 2.51 µM
33 | CCc1cc2ccc(C(C)(C#N)Cc3ccc(Cl)c(C(F)(F)F)c3)cc2[nH]c1=O (stereo not shown) [Compound 82] | 3.98 µM | 0.316 µM | 0.631 µM | – | – | – | –
34 | Cc1cc2ccc(C(C)(C#N)Cc3cc4ccccc4s3)cc2[nH]c1=O (stereo not shown) [Compound 71] | 3.16 µM | 5.01 µM | 2 µM | – | – | – | –
35 | CCc1cc2ccc(C(C)(C#N)Cc3cccc(CNCCN4CCOCC4)c3)cc2[nH]c1=O (stereo not shown) [Compound 61] | 1 µM | > 10 µM | > 10 µM | – | – | – | –
36 | CCc1cc2ccc(C(C)(C#N)Cc3cccc4nnn(C)c34)cc2[nH]c1=O (stereo not shown) [Compound 94] | 0.126 µM | 6.31 µM | > 10 µM | – | – | – | –
37 | CCc1cc2ccc(C(C)(C#N)Cc3cccc(Br)c3)cc2[nH]c1=O (stereo not shown) [Compound 49] | 0.316 µM | 0.2 µM | 0.158 µM | – | – | – | –
38 | CCc1cc2ccc(C(C)(C#N)CCOc3ccccc3F)cc2[nH]c1=O (stereo not shown) [Compound 278] | 0.1 µM | – | – | – | – | 1.58 µM | 2 µM
39 | CCc1cc2ccc(C(C)(C#N)Cc3cccc(C(=O)N(C)C)c3)cc2[nH]c1=O (stereo not shown) [Compound 63] | 1 µM | 1.58 µM | 3.16 µM | – | – | – | –
40 | CCc1cc2ccc(C(C)(C#N)Cc3cccc(OCCCN4CCN(C)CC4)c3)cc2[nH]c1=O (stereo not shown) [Compound 69] | 0.794 µM | 7.94 µM | 7.94 µM | – | – | – | –
41 | Cc1cc2ccc(C(C)(C#N)Cc3ccc(C(F)(F)F)o3)cc2[nH]c1=O (stereo not shown) [Compound 73] | 2 µM | 0.794 µM | 2 µM | – | – | – | –
42 | CCc1cc2ccc(C(C)(C#N)Cc3cc(C)ccc3C)cc2[nH]c1=O (stereo not shown) [Compound 78] | 1.26 µM | 0.398 µM | 0.398 µM | – | – | – | –
43 | CCc1cc2ccc(C(C)(C#N)Cc3cccc(CN4CCOCC4)c3)cc2[nH]c1=O (stereo not shown) [Compound 58] | 0.501 µM | 0.501 µM | 2 µM | – | – | – | –
